Measurements from patent US20220193085A1, “METHODS OF THROMBOPROPHYLAXIS” (JANSSEN PHARMACEUTICALS, INC., priority 2020, published 2022).

How the values were obtained:
[1] = UNIVERSE primary efficacy outcome: any thrombotic event (CIAC adjudicated); assay type: in vivo, pediatric patients; conditions: Part B rivaroxaban N=64, aspirin N=34, up to end of treatment, full analysis set
Description: This study was a prospective, open-label, active-controlled, multicenter study designed to evaluate the PK and PK/PD profiles, safety, and efficacy of rivaroxaban for thromboprophylaxis in pediatric patients 2 to 8 years of age with single ventricle physiology who have completed the Fontan procedure within 4 months prior to enrollment. The trial was approved by the institutional review board of each participating institution, as well as the appropriate national ethics committee. Written informed consent for trial participation was obtained from the parent or guardian of each patient. An Independent Data Monitoring Committee (IDMC) ensured patients' safety throughout the trial. A Central Independent Adjudication Committee (CIAC) reviewed all efficacy and safety events.
Part B was the randomized, open-label, active-controlled part of the study that evaluated the safety and efficacy of twice daily administration of rivaroxaban compared to ASA (usual standard of care) for thromboprophylaxis for 12 months. Patients randomized to rivaroxaban also had PK and PD assessments.
Primary efficacy outcome: Any thrombotic event, venous or arterial, symptomatic or asymptomatic defined as: • The appearance of a new thrombus within the cardiovascular system on either routine surveillance or clinically indicated imaging, or • The occurrence of a clinical event known to be strongly associated with thrombus (e.g., stroke, pulmonary embolism).
All efficacy outcomes were adjudicated by the CIAC, blinded to assigned treatment.

[2] = human, in vivo
Description: The methods and products of the invention concern dosages that are clinically proven safe and/or effective. Adverse events that impact whether the inventive dose, dosing regimen, treatment or method with rivaroxaban of the present invention are safe are adverse bleeding events that include, for example, major bleeding. “Major bleeding” as used herein is defined in accordance with ISTH criteria as clinically overt bleeding associated with a decrease in hemoglobin of […], a transfusion of the equivalent of […] of packed red blood cells or whole blood, or bleeding at a critical site, or with fatal outcome. Other adverse events include clinically relevant non-major bleeding and trivial (minimal) bleeding.
The primary safety outcome was ISTH defined major bleeding. Major bleeding was defined as overt bleeding and: […]
1) Associated with a fall in hemoglobin of 2 g/dL or more; or 2) Leading to a transfusion of the equivalent of 2 or more units of packed red blood cells or whole blood in adults; or 3) Occurring in a critical site: intracranial, intraspinal, intraocular, pericardial, intraarticular, intramuscular with compartment syndrome, retroperitoneal; or 4) Contributing to death.
The secondary safety outcomes were: Clinically relevant non-major bleeding and trivial (minimal) bleeding events.

[3] = UNIVERSE adverse events, serious adverse events and treatment discontinuation; assay type: in vivo, pediatric patients; conditions: Part B rivaroxaban N=64, aspirin N=34
Description: Other safety outcomes: Any adverse events and serious adverse events (SAES).

[4] = treatment-emergent, safety set, listed as ASA
[5] = up to end of treatment, full analysis set

CC(=O)Oc1ccccc1C(=O)O [Aspirin, acetylsalicylic acid]
All-cause mortality, No. of subjects with event [1]: 0
Any thrombotic event (primary efficacy outcome), % of subjects [1]: (8.8%)
Arterial/intracardiac thrombosis, subjects n (%) [1]: 0
Ischemic stroke, % of subjects [1]: (2.9%)
Other thrombosis, subjects n (%) [1]: 0
Pulmonary embolism, subjects n (%) [1]: 0
Venous thromboembolism, % of subjects [1]: (5.9%)
Venous thromboembolism, No. of subjects with event [1]: 2/34
Venous thrombosis, % of subjects [1]: (5.9%)
Any thrombotic event (primary efficacy outcome), % of subjects ([1]; listed as ASA): 9%
CRNM bleeding: GI-Lower, % of subjects [2]: (2.9%)
CRNM bleeding: Gastrointestinal, % of subjects [2]: (2.9%)
CRNM bleeding: Gastrointestinal, subjects n (%) [2]: 1
CRNM bleeding: Gingival, subjects n (%) [2]: 0
CRNM bleeding: Hematoma, % of subjects [2]: (2.9%)
CRNM bleeding: Skin, % of subjects [2]: (2.9%)
CRNM bleeding: Subconjunctival, % of subjects [2]: (2.9%)
Clinically relevant non-major (CRNM) bleeding, % of subjects [2]: (8.8%)
Clinically relevant non-major (CRNM) bleeding, No. of subjects with event [2]: 3/34
Clinically relevant non-major bleeding, % of subjects [2]: (8.8%)
Fall in hemoglobin ≥2 g/dL or transfusion of the equivalent ≥2 units of packed red blood cell or whole blood in adults, No. of subjects with event [2]: 0
Fatal or critical site bleeding, No. of subjects with event [2]: 0
Major and clinically relevant non-major bleeding, % of subjects [2]: (8.8%)
Major and clinically relevant non-major bleeding, No. of subjects with event [2]: 3/34
Major bleeding (primary safety outcome), No. of subjects with event [2]: 0
Subjects with 1 or more on-treatment bleeding events, % of subjects [2]: (41.2%)
Trivial (minimal) bleeding, % of subjects [2]: (35.3%)
Trivial (minimal) bleeding, No. of subjects with event [2]: 12/34
Trivial bleeding, % of subjects [2]: (35.3%)
Trivial bleeding: Epistaxis, % of subjects [2]: (8.8%)
Trivial bleeding: Epistaxis, subjects n (%) [2]: 3
Trivial bleeding: GI-Lower, % of subjects [2]: (2.9%)
Trivial bleeding: GI-Lower, subjects n (%) [2]: 1
Trivial bleeding: GI-Upper, subjects n (%) [2]: 0
Trivial bleeding: Gastrointestinal, % of subjects [2]: (2.9%)
Trivial bleeding: Gastrointestinal, subjects n (%) [2]: 1
Trivial bleeding: Gingival, % of subjects [2]: (2.9%)
Trivial bleeding: Gingival, subjects n (%) [2]: 1
Trivial bleeding: Hematoma, % of subjects [2]: (5.9%)
Trivial bleeding: Hematoma, subjects n (%) [2]: 2
Trivial bleeding: Skin, % of subjects [2]: (23.5%)
Trivial bleeding: Vascular Access Site, subjects n (%) [2]: 0
AEs related to Study Agent, % of subjects ([3]; safety set): (26.5%)
AEs related to Study Agent, n (%) ([3]; safety set): 9
SAEs related to Study Agent, n (%) ([3]; safety set): 0
TEAEs resulting in Permanent Discontinuation of Study Agent, n (%) ([3]; safety set): 0
Adverse event: Pleural Effusion, % of participants ([3]; treatment-emergent, safety set): (6%)
All TEAEs (subjects with 1 or more), % of subjects ([3]; treatment-emergent, safety set): (85.3%)
All TESAEs (subjects with 1 or more serious adverse events), % of subjects ([3]; treatment-emergent, safety set): (23.5%)
Serious adverse event: Infections, % of participants ([3]; treatment-emergent, safety set): (12%)
Serious adverse event: Infections, n (%) ([3]; treatment-emergent, safety set): 4
Serious adverse event: Pleural Effusion, % of participants ([3]; treatment-emergent, safety set): (6%)
Serious adverse event: Pleural Effusion, n (%) ([3]; treatment-emergent, safety set): 2
Serious adverse event: Respiratory, Thoracic, and Mediastinal Disorders, % of participants ([3]; treatment-emergent, safety set): (9%)
Serious adverse event: Respiratory, Thoracic, and Mediastinal Disorders, n (%) ([3]; treatment-emergent, safety set): 3
TEAE: Gastrointestinal Disorders, % of subjects ([3]; treatment-emergent, safety set): (26.5%)
TEAE: Gastrointestinal Disorders, n (%) ([3]; treatment-emergent, safety set): 9
TEAE: General Disorders and Administration Site Conditions, % of subjects ([3]; treatment-emergent, safety set): (23.5%)
TEAE: General Disorders and Administration Site Conditions, n (%) ([3]; treatment-emergent, safety set): 8
TEAE: Infections and infestations, % of subjects ([3]; treatment-emergent, safety set): (64.7%)
TEAE: Injury, Poisoning, and Procedural Complications, % of subjects ([3]; treatment-emergent, safety set): (29.4%)
TEAE: Injury, Poisoning, and Procedural Complications, n (%) ([3]; treatment-emergent, safety set): 10
TEAE: Respiratory, Thoracic, and Mediastinal Disorders, % of subjects ([3]; treatment-emergent, safety set): (26.5%)
TEAE: Respiratory, Thoracic, and Mediastinal Disorders, n (%) ([3]; treatment-emergent, safety set): 9
TEAE: Skin and Subcutaneous Tissue Disorders, % of subjects ([3]; treatment-emergent, safety set): (26.5%)
TEAE: Skin and Subcutaneous Tissue Disorders, n (%) ([3]; treatment-emergent, safety set): 9
TEAE: Vascular Disorders, % of subjects ([3]; treatment-emergent, safety set): (2.9%)
TEAE: Vascular Disorders, n (%) ([3]; treatment-emergent, safety set): 1
Adverse event: Pleural Effusion, n (%) [3, 4]: 2
All TEAEs (subjects with 1 or more), % of subjects [3, 4]: (85%)
All TEAEs (subjects with 1 or more), n (%) [3, 4]: 29
All TESAEs (subjects with 1 or more serious adverse events), % of subjects [3, 4]: (24%)
All TESAEs (subjects with 1 or more serious adverse events), n (%) [3, 4]: 8
TEAE: Gastrointestinal Disorders, % of subjects [3, 4]: (26%)
TEAE: General Disorders and Administration Site Conditions, % of subjects [3, 4]: (24%)
TEAE: Infections and infestations, % of subjects [3, 4]: (65%)
TEAE: Infections and infestations, n (%) [3, 4]: 22
TEAE: Injury, Poisoning, and Procedural Complications, % of subjects [3, 4]: (29%)
TEAE: Respiratory, Thoracic, and Mediastinal Disorders, % of subjects [3, 4]: (26%)
TEAE: Skin and Subcutaneous Tissue Disorders, % of subjects [3, 4]: (26%)
TEAE: Vascular Disorders, % of subjects [3, 4]: (3%)
SAEs, % of subjects [3, 5]: (23.5%)
SAEs, No. of subjects with event [3, 5]: 8/34
